Data as given in publication PMC10778976, “BAY-3827 and SBI-0206965: Potent AMPK Inhibitors That Paradoxically Increase Thr172 Phosphorylation” (International Journal of Molecular Sciences, 2023).

Experiments:
[1] = tested on: native AMPK purified from rat liver; experiment: Cell-free kinase assay of purified rat liver AMPK; assay type: biochemical; details: ATP 200 µM; for IC50: read-out: IC50, inhibition of rat liver AMPK complexes
Excerpt: AMPK assays measured the transfer of radioactivity from labelled ATP to a peptide substrate, which was separated from unreacted ATP by binding to P81 paper. This assay was described previously, except that we used [γ-^33P]ATP rather than [γ-^32P]ATP. The peptide substrate was the AMARA peptide in all experiments other than one, which analyzed allosteric activation by AMP (Figure 2A), when, for technical reasons, the SAMS peptide was used instead. […] After each wash, the pellet was recovered via centrifugation (16,000× g, 3 min) and then resuspended. The final resuspended pellets from each biological replicate were divided into two aliquots (40 µg lysate protein) to provide technical replicates and assayed as above.

[2] = target: T1, isolated kinase domain of the human α2 isoform (residues 1–310) (Homo sapiens, UniProt P54646); experiment: Cell-free kinase assay of isolated α2 kinase domain phosphorylated on Thr172 by CaMKK2; assay type: biochemical; details: for IC50: ATP 200 µM, read-out: IC50, inhibition of human α2 kinase domain
T1 construct: human GST-tagged α2 kinase domain (1–310) was produced as described; GST; made in house
Excerpt: (§1) AMPK assays measured the transfer of radioactivity from labelled ATP to a peptide substrate, which was separated from unreacted ATP by binding to P81 paper. This assay was described previously, except that we used [γ-^33P]ATP rather than [γ-^32P]ATP. The peptide substrate was the AMARA peptide in all experiments other than one, which analyzed allosteric activation by AMP (Figure 2A), when, for technical reasons, the SAMS peptide was used instead. With purified preparations of AMPK, it was assayed in solution, but for assays in cell lysates (Figure 3D and Figure 4D), it was first immunoprecipitated using a mixture of anti-α1 and -α2 antibodies and assayed in resuspended immunoprecipitates. After the initial immunoprecipitation of lysate containing 80 µg of protein, the pellets were washed twice with 1 mL of high salt IP buffer (50 mM Tris-HCL, pH 7.4 at 4 °C, 1 M NaCl, 1 mM EDTA, 1 mM EGTA, 50 mM NaF, 5 mM Na pyrophosphate, 1 mM dithiothreitol, 0.1% (v/v) Triton X-100) and twice with 1 mL of low salt IP buffer (as above but only 150 mM NaCl), followed by a final wash in 1 mL of assay buffer (50 mM Na Hepes, pH7.4, 150 mM NaCl, 1 mM dithiothreitol, 0.02% (v/v) Brij-35). After each wash, the pellet was recovered via centrifugation (16,000× g, 3 min) and then resuspended. The final resuspended pellets from each biological replicate were divided into two aliquots (40 µg lysate protein) to provide technical replicates and assayed as above.
Bacterially expressed heterotrimers and kinase domain constructs (Figure 1B–D) were activated through Thr172 phosphorylation using ATP and GST-tagged CaMKK2, and CaMKK2 was removed via passage through glutathione-Sepharose, as described previously.

AMPK in U2OS cells = experiment: AMPK activity in anti-α1/-α2 immunoprecipitates from treated U2OS cells; assay type: cell-based, human
Excerpt: (§2) T-Rex U2OS cells carrying a Flp Recombinase Target (FRT) site were generated as described previously and grown in Dulbecco’s Modified Eagle’s Medium (DMEM) supplemented with 10% (v/v) FBS and 1% (v/v) penicillin/streptomycin.
Cells were lysed rapidly in situ on culture plates using ice-cold lysis medium containing phosphatase inhibitors, as described previously.
as §1

U2OS cells = experiment: Cellular AMP:ATP ratio via LC:MS in U2OS cells; assay type: cell-based, human
Procedure: as §2
SDS-PAGE was performed using precast NuPAGE Tris-acetate 3–8% gradient polyacrylamide gels in Tris-acetate running buffer when analyzing ACC, GBF1, or Raptor, or NuPAGE Bis-Tris 4–12% gradient polyacrylamide gels in the MOPS buffer system (ThermoFisher Scientific, Waltham, MA, USA) for other proteins (unless stated otherwise). Proteins were transferred to nitrocellulose membranes using the iBlot 2 system (ThermoFisher Scientific). Membranes were enhanced if necessary using SuperSignal Western Blot Enhancer (ThermoFisher Scientific), then blocked for 1 h in Li-Cor Odyssey blocking buffer. The membranes were probed with the appropriate primary antibody ([…]) overnight at 4 °C. Detection was performed using secondary antibody or streptavidin probe (for total ACC) coupled to IR 680 or IR 800 dye, and the membranes were scanned using the LICOR Odyssey IR imager. Protein concentrations were determined by Coomassie Blue binding with bovine serum albumin as a standard. The cellular levels of AMP and ATP were determined via direct perchloric acid extraction from cells, with LC:MS used to estimate the levels of each nucleotide.

T1 sequence (P54646 1-310): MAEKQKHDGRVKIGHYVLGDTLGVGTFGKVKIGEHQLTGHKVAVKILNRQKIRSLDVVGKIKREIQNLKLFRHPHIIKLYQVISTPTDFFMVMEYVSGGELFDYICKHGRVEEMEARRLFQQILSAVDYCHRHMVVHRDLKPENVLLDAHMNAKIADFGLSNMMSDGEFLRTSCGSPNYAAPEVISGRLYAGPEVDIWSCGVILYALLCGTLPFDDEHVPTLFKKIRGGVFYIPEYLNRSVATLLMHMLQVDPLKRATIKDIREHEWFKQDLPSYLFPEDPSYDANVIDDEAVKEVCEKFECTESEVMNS

CNC(=O)c1ccccc1Oc1nc(Nc2cc(OC)c(OC)c(OC)c2)ncc1Br [SBI-0206965]
IC50 [1]: 360 nM
IC50 [2]: 545 nM
effect on AMPK activity in immunoprecipitates (AMPK in U2OS cells; U2OS cells, MK-8722 and increasing concentrations of inhibitor): increased with a similar biphasic pattern
increase in cellular AMP:ATP ratio (U2OS cells; 300 µM, 1 h incubation): > 30 fold

CCc1ccccc1C(=O)Nc1n[nH]c2c(C)c(F)c(C3C(C#N)=C(C)N(C)C(C)=C3C#N)cc12 [BAY-3827]
fold more potent than SBI-0206965 against purified rat liver AMPK [1]: > 20 fold
IC50 [1]: 17 nM
IC50 [2]: 89 nM
Apparent Vmax ([2]; BAY-3827 10 nM): 2.09 µmol/min/mg
Apparent Vmax ([2]; BAY-3827 30 nM): 1.78 µmol/min/mg
Apparent Vmax ([2]; BAY-3827 100 nM): 1.69 µmol/min/mg
Apparent Vmax ([2]; BAY-3827 300 nM): 1.27 µmol/min/mg
EC50 (AMPK in U2OS cells; Homo sapiens, U2OS cells treated with inhibitor and MK-8722, read-out: EC50, activation of AMPK activity in immunoprecipitates): 84 nM
Activation of AMPK activity in immunoprecipitates (AMPK in U2OS cells; U2OS cells treated with inhibitor and MK-8722): 2.5 fold
effect on cellular AMP:ATP ratios (U2OS cells; all concentrations used): did not cause any change
